Reference: patent US20060069038A1, “Irreversible caspase-3 inhibitors as active site probes” (priority 2003, published 2006)

Molecular target: T1, caspase-3 (Homo sapiens, UniProt P42574)
T1 construct: endogenous in cells; host or cells: Jurkat cells, apoptosis induced with camptothecin
T1 sequence (P42574 29-175 limits assumed): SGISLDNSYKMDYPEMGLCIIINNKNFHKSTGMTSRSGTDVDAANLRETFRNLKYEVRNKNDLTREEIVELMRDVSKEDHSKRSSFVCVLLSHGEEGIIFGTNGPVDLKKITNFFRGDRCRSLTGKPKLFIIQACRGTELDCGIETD
T1 sequence (P42574 176-277 limits assumed): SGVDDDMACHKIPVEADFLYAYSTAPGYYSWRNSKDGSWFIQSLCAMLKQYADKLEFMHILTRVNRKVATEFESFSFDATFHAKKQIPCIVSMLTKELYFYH
Assay: [125I]-M808 labeling of caspase subunits in apoptotic Jurkat cells with caspase inhibitor
Assay type: cell-based
Settings: increasing inhibitor concentration, FIG. 4
Description: Jurkat cells (ATCC # TEB-152) were maintained in RPMI1640 supplemented with 10% FBS, 2 mM L-glutamine and antibiotics (penicillin and streptamycin). Apoptosis was induced on cells (1 million cells/ml) that had been starved for 36 hours in CytoSf4 media (Kemp technologies) by addition of camptothecin (Sigma; 3 μg/ml). NT2 cells (ATCC 3813555) were cultured in DMEM+10% FBS+2 mM L-glutamine and antibiotics. Apoptosis induced with camptothecin (5 μg/ml) in culture media.
The determination of caspase activity by [^125I]-M808 labeling was performed by pre-incubating purified recombinant human caspase-3 with indicated amounts of caspase inhibitor (M791) or vehicle (DMSO), for 1 hour at 25° C. in ICE buffer III (50 mM Hepes-KOH pH 7.0, 0.1% CHAPS, 10% sucrose, 2 mM EDTA), supplemented with 5 mM DTT. [^125I]-M808 was added to a final concentration of 1.25 μM and incubated for 5 min at 25° C. Active caspases in tissue or cell extracts were labeled by incubating 60-80 μg of lysate with [^125I]-M808 for 15 minutes at 25° C. Labeling was stopped by addition of Laemli buffer (2% SDS; 0.35 M O-mercaptoethanol; 50 mM Tris-Cl pH 6.8; 10% glycerol; 0.05% bromophenol blue) and by heating at 95° C. for 5 minutes. Caspase labeling in whole cells was performed as following. NT2 cells were plated in 24-well dishes (50 000 cells/well) in DMEM+10% FBS. […]

In the case of `CCCCCN(C)CC(=O)[C@H](CC(=O)O)NC(=O)[C@H](CC)n1cc(C(C)(C)C)nc(NCc2nonc2C)c1=O` [Example M867, (3S)-3-({(2S)-2-[5-tert-butyl-3-{[(4-methyl-1,2,5-oxadiazol-3-yl)methyl]amino}-2-oxopyrazin-1(2H)-yl]butanoyl}amino)-5-[methyl(pentyl)amino]-4-oxopentanoic acid], the “intensity of [125I]-M808-labeled caspase-3 bands (occupancy)” value is reported as “intensity of the radiolabeled bands decreased as the concentration of M867 increased”.
